Source: patent US20230355612A1 (SHANGHAI BOCIMED PHARMACEUTICAL CO., LTD., priority 2020, published 2023)
In brackets after ≈: the same amount, converted by molar mass. Where a name gives a salt, the structure may show the parent alone. Read-outs that look alike come from different tables or passages of the source.

Columns and labels:
[1] = Related substances stability of solids under stress conditions (HPLC); format: physicochemical; conditions: for Total related substances: left to stand under these conditions for 10 days
Method: (§1) Unless otherwise indicated, the starting materials and reagents in the examples below are either commercially available or prepared by one skilled in the art according to methods known in the art. The salt compounds of the examples were tested by nuclear magnetic resonance (^1H-NMR), X-ray powder diffraction (XRPD), differential scanning calorimetry (DSC), thermogravimetric analysis (TGA), hot-stage polarized light microscopy (PLM) and high performance liquid chromatography (HPLC), and the test parameters are as follows: • (1) The ^1H-NMR measurements were taken on a Bruker Advance III500M nuclear magnetic resonance spectrometer at a frequency of […] with deuterated DMSO as the solvent. • (2) The DSC measurements were taken on a sealed pan device in TA Instruments model Q2000: samples (about 1-2 mg) were weighed in aluminum pans and transferred to the instrument for measurement. The test parameters are as follows: the instrument was equilibrated at 30° C. and heated to 300° C. at a rate of 10° C./min, data was collected, and the experiments were conducted in a nitrogen atmosphere. • (3) The TGA measurements were taken on a TA Instruments model Q500 device: samples (about 2-5 mg) were weighed in aluminum pans and transferred to the instrument for measurement. The test parameters are as follows: the instrument was heated to 350° C. at a rate of 10° C./min, data was collected, and the experiments were conducted in a nitrogen atmosphere. • (4) The XRPD measurements were taken on a Bruker model D8 Advance X-ray powder diffractometer using a round zero background single crystal silicon sample stage. The scan parameters are as follows: voltage, 40 kv; current, 40 mA; scan range, 3-45°; scan increment, 0.02°; scan mode, continuous scan. • (5) The PLM analyses were performed under a model DYP990/TPH350 hot stage polarizing microscope from Shanghai Dian Ying Optical Instruments: a small amount of sample was dispersed in a glass slide and photographed using an eyepiece lens at a magnification of 10× and an objective lens at a magnification of 5-40×. • (6) Methods of measuring HPLC content and detecting related substances: […]

[2] = In vitro dissolution simulation experiment, phosphate buffer pH 7.4; format: physicochemical; conditions: pH 7.4 phosphate buffer, 37° C.
Method: The mixtures were shaken at 37° C.

[3] = physchem; conditions: for solubility at 24 h: 37 °C, thermodynamic from solid
Method: The mixtures were shaken at 37° C. for 24 h and filtered through 0.45 μm aqueous-phase filter membranes. The filtrates were collected and the solubility was determined by high performance liquid chromatography. pH3, pH4, pH5 and pH6 represent acetate buffer solutions, and pH7, pH7.4, pH8 and pH9 represent phosphate buffer solutions.

[4] = Pharmacokinetic experiment in rats (plasma cariprazine, LC-MS/MS); format: in vivo, SD rats
Method: In the whole experiment, the animals from the intramuscular injection group were given ad libitum access to food and water, and those from the oral intragastrical group were fasted overnight before administration and given access to food 4 h after administration.
Plasma sample collection: about 150 μL of blood was collected from the jugular vein (whole blood was centrifuged within 30 min to isolate plasma) and placed in a tube containing anticoagulant EDTA-K2, and after treatment, plasma was stored in a freezer at −70° C. before use.
Pretreatment of plasma sample: to 30 μL of plasma sample was added 200 μL of internal standard solution (40 ng/mL Glipizide acetonitrile solution); the mixture was vortexed for 1 min and centrifuged at 5800 rpm at 4° C. for 10 min; 100 μL of supernatant was transferred to a new plate and 1 μL of solution was taken for LC-MS/MS analysis.

[5] = Crystalline form stability of solids under stress conditions (XRPD); format: physicochemical
Method: as §1

[6] = left to stand under these conditions for 10 days

Compound	Concentration ([2]; 1 (h))	Concentration ([2]; 3.5 (h))	Concentration ([2]; 5 (h))	Concentration ([2]; 7 (h))	Concentration ([2]; 24 (h))	Total related substances [1]	further results
CN(C)C(=O)NC1CCC(CCN2CCN(c3cccc(Cl)c3Cl)CC2)CC1 (centres unmarked) [Amorphous cariprazine embonate, cariprazine embonate]	11940 ng/mL	10300 ng/mL	9580 ng/mL	7080 ng/mL	9900 ng/mL	–	Increase in impurities ([1]; high-temperature conditions): bigger increase in impurities
CN(C)C(=O)N[C@H]1CC[C@H](CCN2CCN(c3cccc(Cl)c3Cl)CC2)CC1 [Cariprazine]	–	–	–	–	–	–	solubility at 24 h ([3]; pH 8, aqueous buffer): 1 µg/mL (≈ 2.34 µM); solubility at 24 h ([3]; water): ~180 µg/mL (≈ 421 µM)
CN(C)C(=O)NC1CCC(CCN2CCN(c3cccc(Cl)c3Cl)CC2)CC1 (centres unmarked) [Crystalline form A of cariprazine embonate]	1000 ng/mL	3400 ng/mL	4100 ng/mL	3900 ng/mL	2500 ng/mL	remained substantially unchanged	Length of release among the crystalline forms ([4]; rats, single intramuscular injection 9 mg/kg): best length of release; Crystalline form [5, 6]: its crystalline form did not change; Crystallinity [5, 6]: did not change significantly
CN(C)C(=O)NC1CCC(CCN2CCN(c3cccc(Cl)c3Cl)CC2)CC1 (centres unmarked) [Crystalline form B of cariprazine embonate]	5300 ng/mL	4000 ng/mL	5200 ng/mL	2200 ng/mL	1700 ng/mL	remained substantially unchanged	–
CN(C)C(=O)NC1CCC(CCN2CCN(c3cccc(Cl)c3Cl)CC2)CC1 (centres unmarked) [Crystalline form G of cariprazine embonate]	1300 ng/mL	4510 ng/mL	2280 ng/mL	1840 ng/mL	8050 ng/mL	remained substantially unchanged	–
CN(C)C(=O)NC1CCC(CCN2CCN(c3cccc(Cl)c3Cl)CC2)CC1 (centres unmarked) [cariprazine embonate]	–	–	–	–	–	–	Absorption after oral administration ([4]; rat, in vivo, po, 0.3 mg/kg): fast absorption; Crystalline form ([5]; high-humidity conditions and accelerated conditions): change into crystalline form A of cariprazine embonate; Crystalline form ([5]; high-temperature conditions and illuminated conditions): its crystalline form did not change
CN(C)C(=O)N[C@H]1CC[C@H](CCN2CCN(c3cccc(Cl)c3Cl)CC2)CC1 [cariprazine hydrochloride]	–	–	–	–	–	–	solubility at 24 h ([3]; pH 3, aqueous buffer): 12300 µg/mL; solubility at 24 h ([3]; pH 4, aqueous buffer): 9770 µg/mL; solubility at 24 h ([3]; pH 5, aqueous buffer): 1080 µg/mL; solubility at 24 h ([3]; water): ~11000 µg/mL
cariprazine malate	–	–	–	–	–	–	Solubility [3]: >1065.7 µg/mL; Solubility ([3]; pH 3): >266.4 µg/mL; Solubility ([3]; pH 5): >228.4 µg/mL; Solubility ([3]; pH 7): <304.5 µg/mL; Solubility ([3]; pH 9): <152.2 µg/mL
cariprazine succinate	–	–	–	–	–	–	Solubility [3]: >261.2 µg/mL; Solubility ([3]; pH 3): >215.5 µg/mL; Solubility ([3]; pH 9): <215.5 µg/mL
